Laboratory results as given in patent US8846704B2, “Thiopyrimidine-based compounds and uses thereof” (YM Biosciences Austraila Pty Ltd, priority 2007, dated 2014).

How the values were obtained:
Format in all cases: cell-based
[1] = biological target: T1, BaF3 TELJAK3 cells (Homo sapiens, UniProt P52333); assay: Cellular screening, BaF3 TEL:JAK3 cells, Alamar Blue; settings: 40 hr, read-out: BafT_J3 IC50_nM
T1 construct: fused on or other part: TEL (ETV6) N-terminal part, coding nucleotides 1-487, serves as the oligomerising partner; It is fused through a Sal I site to the JAK3 kinase domain and expressed from pTRE2 in BaF3 cells bearing pTET-off; P41212 (Transcription factor ETV6)
T1 sequence (P52333 1-1124): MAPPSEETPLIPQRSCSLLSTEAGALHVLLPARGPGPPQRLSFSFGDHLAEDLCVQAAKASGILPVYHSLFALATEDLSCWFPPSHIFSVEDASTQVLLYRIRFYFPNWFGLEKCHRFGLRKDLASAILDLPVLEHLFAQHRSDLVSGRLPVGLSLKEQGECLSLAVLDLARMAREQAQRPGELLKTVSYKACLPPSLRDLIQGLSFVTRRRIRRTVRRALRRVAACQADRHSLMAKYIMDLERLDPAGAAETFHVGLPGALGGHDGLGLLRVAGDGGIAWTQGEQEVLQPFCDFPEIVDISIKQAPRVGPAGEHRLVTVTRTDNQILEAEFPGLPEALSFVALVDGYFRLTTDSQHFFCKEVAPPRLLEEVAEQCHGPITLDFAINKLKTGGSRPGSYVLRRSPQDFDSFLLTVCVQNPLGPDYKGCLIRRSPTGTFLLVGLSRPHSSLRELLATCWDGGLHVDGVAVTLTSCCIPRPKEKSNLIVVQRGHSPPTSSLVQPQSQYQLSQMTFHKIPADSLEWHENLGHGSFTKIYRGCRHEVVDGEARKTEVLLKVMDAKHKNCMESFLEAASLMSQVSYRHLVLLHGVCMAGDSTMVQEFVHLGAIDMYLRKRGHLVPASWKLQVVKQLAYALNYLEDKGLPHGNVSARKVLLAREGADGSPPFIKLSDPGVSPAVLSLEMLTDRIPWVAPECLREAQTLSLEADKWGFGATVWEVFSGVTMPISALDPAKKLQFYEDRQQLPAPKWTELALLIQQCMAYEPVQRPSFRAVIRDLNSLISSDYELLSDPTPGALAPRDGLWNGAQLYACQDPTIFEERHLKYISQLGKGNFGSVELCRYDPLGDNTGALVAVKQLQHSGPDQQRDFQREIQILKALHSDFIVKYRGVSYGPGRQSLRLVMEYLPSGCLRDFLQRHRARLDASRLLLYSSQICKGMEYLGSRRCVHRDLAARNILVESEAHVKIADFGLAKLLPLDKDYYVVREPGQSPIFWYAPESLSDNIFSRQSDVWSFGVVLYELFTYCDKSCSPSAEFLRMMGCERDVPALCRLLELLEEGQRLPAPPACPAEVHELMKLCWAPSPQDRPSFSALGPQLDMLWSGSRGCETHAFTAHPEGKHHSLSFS
Procedure, shortened: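 Alamar Blue signal at 544 nm, developed for 4–6 h, measured viability after 40 h of compound treatment at 37 °C, 5% CO2. Cells were growth-factor-independent BaF3 lines transfected with a TEL/JAK3 kinase-domain fusion under tet-off control. They were cultured in DMEM, 10% Tet-approved FBS, lacking WEHI 3B conditioned medium.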

[2] = system: BaF3 wild-type cells; assay: Cellular screening, BaF3 wild-type cells, Alamar Blue; settings: Mus musculus, 40 hr, read-out: BAF3wt IC50_nM
Procedure, shortened: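 Compounds, screened from dilution plates at 20 μM, were added as 10× final stocks to cells grown in DMEM/10% FCS/10% WEHI 3B conditioned medium. Cells were seeded at 1.1× final (50,000–200,000 cells/mL) and incubated 40 hr at 37° C, 5% CO2. Viability was read at 544 nm after a further 4–6 hours with Alamar Blue.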

[3] = system: CTLL2; assay: Cellular screening, CTLL2 cells, Alamar Blue; settings: Mus musculus, CTLL-2, read-out: CTLL2 IC50_nM
Procedure, shortened: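 Viability is read with Alamar Blue at 544 nm, the dye added for the final 4-6 hours. Compounds were incubated for 40 hr with CTLL2 cells taken from late-log-phase culture, at 37° C in 5% CO2.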

| Compound | GI50 [1] | IC50 [2] | IC50 [3] |
| --- | --- | --- | --- |
| C=CC(=O)Nc1ccc(Sc2nc(Nc3ccc(NS(C)(=O)=O)c(OC)c3)ncc2C)cc1 [Compound 296, N-(4-(2-(3-methoxy-4-(methylsulfonamido)phenylao)-5-methylpyrimidin-4-ylthio)phenyl)acrylamide] | < 1 µM | < 5 µM | < 1 µM |
| N#Cc1nnnn1Cc1ccc(Sc2ccnc(Nc3ccc(N4CCOCC4)cc3)n2)cc1 [Compound 155, 1-(4-(2-(4-morpholinophenylao)pyrimidin-4-ylthio)benzyl)-1H-tetrazole-5-carbonitrile] | < 20 µM | < 20 µM | < 5 µM |
| C=CC(=O)Nc1ccc(Sc2nc(Nc3ccc(N4CCOCC4)cc3)ncc2F)cc1 [Compound 268, N-(4-(5-fluoro-2-(4-morpholinophenylao)pyrimidin-4-ylthio)phenyl)acrylamide] | < 1 µM | > 20 µM | < 1 µM |
| c1cc(Sc2ccc(Cn3cnnn3)cc2)nc(Nc2ccc(N3CCOCC3)cc2)n1 [Compound 109, 4-(4-((1H-tetrazol-1-yl)methyl)phenylthio)-N-(4-morpholinophenyl)pyrimidin-2-ae] | < 20 µM | < 20 µM | > 20 µM |
| Cc1cnc(Nc2ccc(N3CCOCC3)cc2)nc1Sc1c(C)cc(N)cc1C [Compound 165, 4-(4-ao-2,6-dimethylphenylthio)-5-methyl-N-(4-morpholinophenyl)pyrimidin-2-ae] | > 20 µM | > 20 µM | > 20 µM |
| C=CC(=O)Nc1ccc(Sc2ccnc(Nc3cc(C)cc(C)c3)n2)cc1 [Compound 82, N-(4-(2-(3,5-dimethylphenylao)pyrimidin-4-ylthio)phenyl)acrylamide] | < 5 µM | < 20 µM | < 20 µM |
| C=CC(=O)Nc1cccc(Nc2nccc(Sc3ccc(OC)cc3)n2)c1 [Compound 42, N-(3-(4-(4-methoxyphenylthio)pyrimidin-2-ylao)phenyl)acrylamide] | < 5 µM | < 20 µM | < 5 µM |
| N#CCC(=O)Nc1cccc(Sc2ccnc(Nc3ccc(N4CCOCC4)cc3)n2)c1 [Compound 24, N-(3-(2-(4-morpholinophenylamino)pyrimidin-4-ylthio)phenyl)-2-cyanoacetamide] | < 20 µM | < 20 µM | < 20 µM |
| C=CC(=O)Nc1ccc(Sc2nc(Nc3cccc(N4CCOCC4)c3)ncc2C)cc1 [Compound 237, N-(4-(5-methyl-2-(3-morpholinophenylao)pyrimidin-4-ylthio)phenyl)acrylamide] | < 1 µM | < 1 µM | < 1 µM |
| C=CC(=O)Nc1ccc(Sc2nc(Nc3ccc(N4CCC(O)C4)cc3)ncc2C)cc1 (stereo not drawn) [Compound 295, N-(4-(2-(4-(3-hydroxypyrrolidin-1-yl)phenylao)-5-methylpyrimidin-4-ylthio)phenyl)acrylamide] | < 1 µM | > 20 µM | < 1 µM |
| N#Cc1ncn(Cc2ccc(Sc3ccnc(Nc4ccc(N5CCOCC5)cc4)n3)cc2)c1C#N [Compound 201, 1-(4-(2-(4-morpholinophenylao)pyrimidin-4-ylthio)benzyl)-1H-imidazole-4,5-dicarbonitrile] | < 5 µM | < 5 µM | < 5 µM |
| CC#CC(=O)Nc1ccc(Sc2ccnc(Nc3cccc(N4CCOCC4)c3)n2)cc1 [Compound 233, N-(4-(2-(3-morpholinophenylao)pyrimidin-4-ylthio)phenyl)but-2-ynamide] | < 1 µM | < 5 µM | < 5 µM |
| Cc1cnc(Nc2ccc(O)cc2)nc1Sc1ccc(NC(=O)CCl)cc1 [Compound 193, 2-chloro-N-(4-(2-(4-hydroxyphenylao)-5-methylpyrimidin-4-ylthio)phenyl)acetamide] | < 1 µM | < 5 µM | < 1 µM |
| C=CC(=O)Nc1ccc(Sc2nc(Nc3cccc(NS(C)(=O)=O)c3)ncc2C)cc1 [Compound 288, N-(4-(5-methyl-2-(3-(methylsulfonamido)phenylao)pyrimidin-4-ylthio)phenyl)acrylamide] | < 1 µM | < 20 µM | < 1 µM |
| C=CC(=O)Nc1ccc(Sc2ccnc(Nc3ccc(N4CCOCC4)cc3)n2)cc1 [Compound 25, N-(4-(2-(4-morpholinophenylamino)pyrimidin-4-ylthio)phenyl)acrylamide] | < 1 µM | > 20 µM | < 1 µM |
| Cc1cnc(Nc2cccc(O)c2)nc1Sc1ccc(NC(=O)CCl)cc1 [Compound 194, 2-chloro-N-(4-(2-(3-hydroxyphenylao)-5-methylpyrimidin-4-ylthio)phenyl)acetamide] | < 1 µM | < 5 µM | < 1 µM |
| Cc1cnc(Nc2ccc(N3CCOCC3)cc2)nc1Sc1ccc(NC(=O)/C=C\C(=O)O)cc1 [Compound 380, (Z)-4-(4-(5-methyl-2-(4-morpholinophenylao)pyrimidin-4-ylthio)phenylao)-4-oxobut-2-enoic acid] | > 20 µM | > 20 µM | > 20 µM |
| Cc1cnc(Nc2ccc(N3CCOCC3)cc2)nc1Sc1ccc(N)cc1Cl [Compound 251, 4-(4-ao-2-chlorophenylthio)-5-methyl-N-(4-morpholinophenyl)pyrimidin-2-ae] | > 20 µM | > 20 µM | > 20 µM |
| Cc1cnc(Nc2ccc(N3CCN(C)CC3)cc2)nc1Sc1ccc(N)cc1 [Compound 244, 4-(4-aophenylthio)-5-methyl-N-(4-(4-methylpiperazin-1-yl)phenyl)pyrimidin-2-ae] | < 5 µM | < 5 µM | < 5 µM |
| C=CC(=O)Nc1ccc(Sc2ccnc(Nc3cccc(O)c3)n2)cc1 [Compound 277, N-(4-(2-(3-hydroxyphenylao)pyrimidin-4-ylthio)phenyl)acrylamide] | < 1 µM | > 20 µM | < 1 µM |
| C=CC(=O)Nc1ccc(Sc2nc(Nc3ccc(OC)c(OC)c3)ncc2C)cc1 [Compound 241, N-(4-(2-(3,4-dimethoxyphenylao)-5-methylpyrimidin-4-ylthio)phenyl)acrylamide] | < 1 µM | < 20 µM | < 1 µM |
| C=CC(=O)Nc1ccc(Sc2nc(Nc3ccc(OCCN4CCOCC4)cc3)ncc2C)cc1 [Compound 290, N-(4-(5-methyl-2-(4-(2-morpholinoethoxy)phenylao)pyrimidin-4-ylthio)phenyl)acrylamide] | < 1 µM | < 5 µM | < 1 µM |
| C=CC(=O)Nc1ccc(Sc2nc(Nc3ccc(N4CCOCC4)cc3)ncc2C)cc1CC [Compound 260, N-(2-ethyl-4-(5-methyl-2-(4-morpholinophenylao)pyrimidin-4-ylthio)phenyl)acrylamide] | < 5 µM | > 20 µM | < 5 µM |
